Measurements as given in PubChem BioAssay (NCI).
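Values below derive from 48-hour exposures of cells grown in 96-well plates, with endpoints linearly interpolated between the two concentrations bracketing the appropriate inhibition level. Definition used: TGI = concentration required for complete inhibition of growth.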

How the values were obtained:
Assay in all cases: NCI tumour cell line growth inhibition, 48 h
DMS 273 small cell lung = test system: DMS 273 small cell lung
KM20L2 colon = test system: KM20L2 colon
P388 leukemia = test system: P388 leukemia
P388/ADR leukemia = test system: P388/ADR leukemia
SN12K1 renal = test system: SN12K1 renal
XF 498 CNS = test system: XF 498 CNS
LXFL 529 NSCLC = test system: LXFL 529 NSCLC
RXF-631 renal = test system: RXF-631 renal

Work on `O=C1N[C@@H]2C(=C[C@H](O)[C@@H](O)[C@H]2O)c2cc3c(c(O)c21)OCO3` yielded a TGI (DMS 273 small cell lung) of 0.145 µM, a TGI (KM20L2 colon) of 0.315 µM and a TGI (P388 leukemia) of 0.969 µM. It also gave a TGI (P388/ADR leukemia) of 0.45 µM, a TGI (SN12K1 renal) of 0.1 µM and a TGI (XF 498 CNS) of 0.0541 µM.

Work on `CCOC(=O)c1c[nH]c2ccc3c(c2c1=O)S(=O)(=O)CC3` (tested in a mixture with another compound) yielded a TGI (DMS 273 small cell lung) greater than 100 µM, a TGI (KM20L2 colon) greater than 100 µM and a TGI (P388 leukemia) greater than 100 µM. The TGI (P388/ADR leukemia) was greater than 100 µM, the TGI (SN12K1 renal) was greater than 100 µM and the TGI (XF 498 CNS) was greater than 100 µM.

Work on `CN1CCN(P2(=S)Oc3ccc4ccccc4c3-c3c(ccc4ccccc34)O2)CC1` yielded a TGI (DMS 273 small cell lung) of 73 µM, a TGI (KM20L2 colon) greater than 61.7 µM and a TGI (P388 leukemia) greater than 68 µM. For the same molecule, the TGI (P388/ADR leukemia) was greater than 95.5 µM, the TGI (SN12K1 renal) was 56.9 µM and the TGI (XF 498 CNS) was 67.3 µM.

With `COC(=O)C(=O)Cc1nc2ccccc2o1` the TGI (LXFL 529 NSCLC) was greater than 100 µM, the TGI (RXF-631 renal) was greater than 100 µM and the TGI (XF 498 CNS) was greater than 100 µM.

Work on `CCCCCCCCCCCC[N+](CCCCCCCCCCCC)=C1SCCS1` yielded a TGI (DMS 273 small cell lung) of 11.4 µM, a TGI (KM20L2 colon) of 18.4 µM and a TGI (LXFL 529 NSCLC) of 14 µM. The TGI (RXF-631 renal) was 52.2 µM.

In the case of `O=C1CCCC/C1=C\c1ccc(Cl)c(Cl)c1`, the TGI (DMS 273 small cell lung) is reported as 38.5 µM, the TGI (KM20L2 colon) is reported as 40.9 µM and the TGI (LXFL 529 NSCLC) is reported as 31.2 µM.

`O=NN(CCF)C(=O)NC1CCSCC1` showed a TGI (DMS 273 small cell lung) greater than 100 µM, a TGI (KM20L2 colon) greater than 100 µM and a TGI (P388 leukemia) greater than 100 µM. It also gave a TGI (P388/ADR leukemia) greater than 100 µM and a TGI (SN12K1 renal) greater than 100 µM.
